Assay results published in patent publication US7591997B2, “Method for determining the susceptibility of a subject to infection” (Mabtech AB, priority 2002, dated 2009).

Tested on: Actinobacillus actinomycetemcomitans
Test: Standard colony forming units (CFU) assay of LL-37 on A. actinomycetemcomitans
Assay type: cell-based
Procedure: In this study we used an isolate of Actinobacillus actinomycetemcomitans from the oral cavitas of patient (A), kindly provided by Dr A. Johansson (Umeå). Bacteria were routinely grown on tryptic soy agar (Difco) supplemented with 0.5% yeast extract (TSBY) at microaerophilic conditions. The effect of LL-37 on A. actinomycetemcomitans was tested in a standard colony forming units (CFU)-assay (Tanaka et al., Oral Microbiol Immunol. 2000;15(4):226-31) by incubating 10^5 bacteria for 90 min with 20 μg/ml of synthetic LL-37 in 10 mM phosphate buffer pH 7.2 with 1% TSBY.

For “LL-37: Human cathelicidin-type antibacterial peptide encoded by the CAMP gene, SEQ ID NO: 3; released from the proform cathelin-LL-37 (LLGDFFRKSKEKIGKEFKRIVQRIKDFLRNLVPRTES; homo sapiens)”, the “reduction in colony counts” value (20 μg/ml LL-37 for 90 min, 10^5 bacteria, isolate from patient (A), 10 mM phosphate buffer pH 7.2 with 1% TSBY) was 3-4 log and the “effect on growth of the bacteria in vitro” value (A. actinomycetemcomitans isolated from patient (A)) was “could stop the growth”.
